The series can be described thus: in vitro. The note with it: rat, microsomes. The procedure:
Buffer solutions were prepared as follows: • a. Buffer A: 0.1 M monobasic potassium phosphate buffer containing 1.0 mM EDTA. • b. Buffer B: 0.1 M dibasic potassium phosphate buffer containing 1.0 mM EDTA. • c. Buffer C: 0.1 M potassium phosphate buffer containing 1.0 mM EDTA was adjusted to pH 7.4 by titrating 700 mL of Buffer B with Buffer A while monitoring with a pH meter. • 2. An NADPH stock solution (6 mM) was prepared by dissolving NADPH into Buffer C. • 3. Spiking solutions were prepared for the reference compound (ketanserin) and the test compounds as follows: • a. A 500 μM spiking solution of the reference compound (ketanserin) was generated by adding 10 μL of a 10 mM stock solution of ketanserin in DMSO into 190 μL acetonitrile. A 1.5 μM spiking solution in microsomes (0.75 mg/mL) was generated by adding 1.5 μL of the 500 μM spiking solution and 18.75 μL of 20 mg/mL rat liver microsomes into 479.75 μL of Buffer C while cooling with ice. • b. […] A 0.75 μM spiking solution in microsomes (0.75 mg/mL) was generated by adding 1.5 μL of the 250 μM spiking solution and 18.75 μL of 20 mg/mL rat liver microsomes into 479.75 μL of Buffer C while cooling with ice. • 4. 30 μL of 1.5 μM spiking solution containing 0.75 mg/mL microsomes solution was dispensed into assay plates designated for different time points (0 min, 5 min, 15 min, 30 min, and 45 min; or 0 min, 15 min, 30 min, 45 min, and 60 min as shown in Tables 1-5 below) while cooling with ice. • 5. For the 0 min time point assay plate, 135 μL of ACN containing IS followed immediately by 15 μL of the 6 mM NADPH stock solution were added to the wells of the 0 min assay plate. • 6. All assay plates other than the 0 min assay plate were pre-incubated at 37° C. for 5 min, and then 15 μL of the 6 mM NADPH stock solution was added to the wells of the assay plates to start the reaction and timing. At the appropriate time (5 min, 15 min, 30 min, 45 min, or 60 min), 135 μL of ACN containing IS was added to the wells of the corresponding assay plates, respectively, to stop the reaction. • 7. After quenching, the plates were shaken in a vibrator (IKA, MTS 2/4) for 10 min (600 rpm/min) and then centrifuged at 5594 g for 15 min (Thermo Multifuge×3R). • 8. After centrifugation, 50 μL of the supernatant from each well was transferred into a 96-well sample plate containing 50 μL of ultrapure water (Millipore, ZMQS50F01) for LC/MS analysis.

As to `[2H]C1([2H])NC([2H])([2H])C([2H])(c2ccc(-n3cc4cccc(C(N)=O)c4n3)cc2)C([2H])([2H])C1([2H])[2H]` (racemic) [Example 3, 2-(4-(piperidin-3-yl-2,2,3,4,4,5,5,6,6-d9)phenyl)-2H-indazole-7-carboxamide], the “Percent Remaining (%) 0 min” value (0 h, 0.5 µM, pH 7.4) is 100.00%. The “Percent Remaining (%) 15 min” value (0.25 h, 0.5 µM, pH 7.4) was found to be 92.77%. Also, the “Percent Remaining (%) 30 min” value (0.5 h, 0.5 µM, pH 7.4) is 82.19%. Also, for the setting “0.75 h, 0.5 µM, pH 7.4”, the “Percent Remaining (%) 45 min” value came out at 74.60%. Further, the “Percent Remaining (%) 60 min” value (1 h, 0.5 µM, pH 7.4) stood at 69.31%. Also, the intrinsic clearance (CLint scaled) – broadly, the rate of metabolic loss divided by the concentration – at 0.5 µM (pH 7.4, Clint) was found to be 22.7 mL/min/kg. Further, the half-life – broadly, the time needed for the level to fall by half in the phase considered – at 0.5 µM (pH 7.4, T1/2) was 1.82 h.
